# Data taken from ChEMBL document CHEMBL3507680, “University of Dundee, Gates Library screen for HepG2 cell viability”.
# Test: Human HepG2 cell viability assay in 384 well format
# Format: toxicity, cell-based
# Set-up: dose 125 nL, time 70.5 hour; cytotoxicity at 70.5 h: concentration not given beside the values
# Details: HepG2 cells, read-out: Inhibition
row,SMILES,cytotoxicity at 70.5 h [%]
1,CC1COCCN1Cc1nc(-c2ccc(Br)s2)no1 (stereo not given),1.52
2,Cc1cc(C(=O)NC2CCc3nc(C)cn3C2)[nH]n1 (stereo not given),-5.51
3,Cc1ccc(N2CCC3(CCCN(C(=O)c4cccnc4)C3)C2)nn1 (stereo not given),18.8
4,Cc1ccc(N2CCC3(CC2)COCCN(c2nccs2)C3)nn1,2.35
5,Brc1ccc2[nH]c3c(c2c1)CCCC3c1nn[nH]n1 (stereo not given),-14.8
6,CCN(C)C[C@H]1CC[C@@H](Cc2ccc3c(cnn3C)c2)O1,11.5
7,Cc1ncc2c(n1)CN(CC(O)COc1ccc(C#N)cc1)CC2 (stereo not given),-3.74
8,O=C(NCC1CC1)C1CCC2(CCN(C(=O)c3ccncc3)CC2)O1 (stereo not given),10.5
9,O=C(NCC1Cn2nnc(-c3ccoc3)c2CO1)c1ccc[nH]1 (stereo not given),-9.78
10,CN(C)S(=O)(=O)N1CC(c2nc(N)ncc2-c2ccc(F)cc2)C1,-0.38
11,CSc1ccc(C)c(C(=O)Nc2c(C(N)=O)n[nH]c2C)c1,-5.86
12,O=C(N1CCCC1)N1CCOCC2(CCN(Cc3cccs3)C2)C1 (stereo not given),29.2
13,CC(C)n1nc(CN2CCOCC2)c2c1CN(Cc1ccsc1)C2,-4.8
14,CC(C)C(=O)Nc1ccc(Oc2ccc3c(c2)OCO3)nc1,-10.1
15,Cc1c(C(=O)NCCC(=O)N2CCCC2)cccc1-c1ccccn1,-17.7
16,Cc1nc(C2CCNCC2)cc(N(C)Cc2cc3cc(F)ccc3[nH]2)n1,-1.29
17,CCn1cc(S(=O)(=O)N2CCCC3(CC=CNC3=O)C2)cn1 (stereo not given),-0.325
18,O=C(CN1CCCC1Cn1cncn1)NCCC1=CCCCC1 (stereo not given),1.2
19,Cc1ccc(CN2CCC(F)(F)C3(CCN(c4cnccn4)C3)C2)o1 (stereo not given),-1.47
20,Cn1cccc1CCC(=O)N1CCC2(CC1)c1ccccc1CC2O (stereo not given),-12.2
21,CO[C@@H]1CO[C@@]2(CCN(C(=O)COc3ccccc3C)C2)C1,-2.61
22,N#Cc1ccccc1OCCN1CCC(N2CCNC2=O)CC1,-11.9
23,COc1ncccc1NC(=O)C1CC(=O)N(Cc2ccccn2)C1 (stereo not given),0.729

row,SMILES,cytotoxicity at 70.5 h [%]
1,Cc1noc(C)c1CN(C)C(=O)NC1CCCN(S(C)(=O)=O)C1 (stereo not given),0.729
2,Cc1ccc(CNC(C)(C)c2noc(C(C)(C)C)n2)o1,-1.89
3,Cc1cc(N2CCC(O)(CN(C)C(=O)CCCN)C2)c2cnccc2n1 (stereo not given),-0.861
4,Cc1nn(C)c(C)c1C(=O)N1CCN(c2ccncc2Cl)CC1,-6.89
5,CCOC(=O)N1CCN(CC(=O)Nc2ccc(F)cc2Cl)CC1,-8.51
6,Cn1cc(C(=O)N2CCCC2c2noc(C3CC3)n2)c2ccccc21 (stereo not given),-3.41
7,Cc1ccc(OCCC(=O)NC2CC(=O)N(C)C2)cc1C (stereo not given),-6.43
8,Cn1ccnc1C1(O)CCN(C(=O)Cc2ccccc2)CC1,-6.34
9,CN(C)S(=O)(=O)NCCn1nc(-c2ccccc2)n(C)c1=O,-4.25
10,CNc1cc(-c2nc(CCN3CCCC3=O)no2)ccn1,12.1
11,CCS(=O)(=O)c1ncc(CN2CCSCC2)n1CCc1ccccc1,-11.3
12,Cc1cc(C2CCCN(Cc3cccnc3)C2)n[nH]1 (stereo not given),47.5
13,Cc1nc(CN2CCN(C(=O)c3ccc(=O)n(C)c3)CC2)cs1,-2.46
14,Cc1cc(F)cc(NC(=O)N(C)CC(C)(CO)CO)c1,-1.87
15,O=C1CCOC[C@]2(CN(Cc3ccccc3)C[C@H]2c2ccccc2F)N1,1.5
16,c1cnc(N2CC[C@@H]3CN(Cc4ccncc4)CCO[C@@H]3C2)nc1,-2.03
17,c1ccc(N2CCOC3(CCCN(c4ncccn4)C3)C2)nc1 (stereo not given),-5.71
18,COC(=O)CN(C(=O)c1cc(C(C)C)no1)c1cccc(F)c1,-8.3
19,CC(C)NC(=O)N(C)C(c1cccc(F)c1)c1ccccn1 (stereo not given),-7.96
20,O=C(C1CCOCC1)N1CCc2ncc(CN3CCOCC3)n2CC1,-11.5
21,Cc1noc(C)c1-c1n[nH]c2c1CN(S(=O)(=O)c1cccnc1)CC2,-6.84
22,CN(CCc1ccccc1)Cc1nc(Cc2cccc(F)c2)no1,0.246
